Laboratory results published in ChEMBL document CHEMBL4002585, “Novel CLK1 inhibitors based on N-aryloxazol-2-amine skeleton - A possible way to dual VEGFR2 TK/CLK ligands” (Eur J Med Chem, 2017).
Each block holds one molecule with its values, some of them ahead of it.

Experiments:
[1] = target: T1, Dual specificity protein kinase CLK1 (Homo sapiens, UniProt P49759); experiment: Inhibition of human CLK1 (148 to 484 residues) expressed in Escherichia coli BL21(DE3) preincubated for 10 mins followed by AFRREWSPGKEAKK substrate addition by pyruvate kinase and lactate dehydrogenase coupled enzyme assay
[2] = Inhibition of Leishmania infantum MHOM/BR/82/BA-2 N-terminal His6-tagged GSK3 expressed in Escherichia coli BL21(DE3) using Biotin-labeled GSP-2 peptide substrate after 90 mins in presence of [gamma33-P]ATP by scintillation proximity assay
[3] = Inhibition of Leishmania major strain Friedlin N-terminal His6-tagged GSK3 expressed in Escherichia coli BL21(DE3) using Biotin-labeled GSP-2 peptide substrate after 90 mins in presence of [gamma33-P]ATP by scintillation proximity assay
[4] = Inhibition of Trypanosoma brucei GSK3 using Biotin-labeled GSP-2 peptide substrate after 90 mins in presence of [gamma33-P]ATP by scintillation proximity assay
[5] = Inhibition of Leishmania major strain Friedlin endogenous GSK3 using Biotin-labeled GSP-2 peptide substrate after 90 mins in presence of [gamma33-P]ATP by scintillation proximity assay
[6] = Inhibition of Leishmania major strain Friedlin fusion protein GSK3 using Biotin-labeled GSP-2 peptide substrate after 90 mins in presence of [gamma33-P]ATP by scintillation proximity assay
[7] = target: T1, Dual specificity protein kinase CLK1; experiment: Inhibition of human CLK1 using substrate after 30 mins in presence of [gamma-33P]ATP by liquid scintillation counting
[8] = target: Dual specificity tyrosine-phosphorylation-regulated kinase 1A (Homo sapiens, UniProt Q13627); experiment: Inhibition of DYRK1A (unknown origin) using substrate after 30 mins in presence of [gamma-33P]ATP by liquid scintillation counting
[9] = target: CDK9/cyclin T1 (Homo sapiens, UniProt P50750); experiment: Inhibition of CDK9/CyclinT (unknown origin) using substrate after 30 mins in presence of [gamma-33P]ATP by liquid scintillation counting; format: protein-complex assay
[10] = target: Glycogen synthase kinase-3 (Homo sapiens, UniProt P49840+P49841); experiment: Inhibition of GSK3 alpha/beta (unknown origin) using substrate after 30 mins in presence of [gamma-33P]ATP by liquid scintillation counting; format: protein assay
[11] = Inhibition of GSK3 (unknown origin) using substrate after 30 mins in presence of [gamma-33P]ATP by liquid scintillation counting; set-up: species or system Homo sapiens
[12] = target: Vascular endothelial growth factor receptor 2 (Homo sapiens, UniProt P35968); experiment: Inhibition of VEGFR2 (unknown origin) using substrate after 30 mins in presence of [gamma-33P]ATP by liquid scintillation counting
Vascular endothelial growth factor receptor 2, sequence (P35968 whole entry): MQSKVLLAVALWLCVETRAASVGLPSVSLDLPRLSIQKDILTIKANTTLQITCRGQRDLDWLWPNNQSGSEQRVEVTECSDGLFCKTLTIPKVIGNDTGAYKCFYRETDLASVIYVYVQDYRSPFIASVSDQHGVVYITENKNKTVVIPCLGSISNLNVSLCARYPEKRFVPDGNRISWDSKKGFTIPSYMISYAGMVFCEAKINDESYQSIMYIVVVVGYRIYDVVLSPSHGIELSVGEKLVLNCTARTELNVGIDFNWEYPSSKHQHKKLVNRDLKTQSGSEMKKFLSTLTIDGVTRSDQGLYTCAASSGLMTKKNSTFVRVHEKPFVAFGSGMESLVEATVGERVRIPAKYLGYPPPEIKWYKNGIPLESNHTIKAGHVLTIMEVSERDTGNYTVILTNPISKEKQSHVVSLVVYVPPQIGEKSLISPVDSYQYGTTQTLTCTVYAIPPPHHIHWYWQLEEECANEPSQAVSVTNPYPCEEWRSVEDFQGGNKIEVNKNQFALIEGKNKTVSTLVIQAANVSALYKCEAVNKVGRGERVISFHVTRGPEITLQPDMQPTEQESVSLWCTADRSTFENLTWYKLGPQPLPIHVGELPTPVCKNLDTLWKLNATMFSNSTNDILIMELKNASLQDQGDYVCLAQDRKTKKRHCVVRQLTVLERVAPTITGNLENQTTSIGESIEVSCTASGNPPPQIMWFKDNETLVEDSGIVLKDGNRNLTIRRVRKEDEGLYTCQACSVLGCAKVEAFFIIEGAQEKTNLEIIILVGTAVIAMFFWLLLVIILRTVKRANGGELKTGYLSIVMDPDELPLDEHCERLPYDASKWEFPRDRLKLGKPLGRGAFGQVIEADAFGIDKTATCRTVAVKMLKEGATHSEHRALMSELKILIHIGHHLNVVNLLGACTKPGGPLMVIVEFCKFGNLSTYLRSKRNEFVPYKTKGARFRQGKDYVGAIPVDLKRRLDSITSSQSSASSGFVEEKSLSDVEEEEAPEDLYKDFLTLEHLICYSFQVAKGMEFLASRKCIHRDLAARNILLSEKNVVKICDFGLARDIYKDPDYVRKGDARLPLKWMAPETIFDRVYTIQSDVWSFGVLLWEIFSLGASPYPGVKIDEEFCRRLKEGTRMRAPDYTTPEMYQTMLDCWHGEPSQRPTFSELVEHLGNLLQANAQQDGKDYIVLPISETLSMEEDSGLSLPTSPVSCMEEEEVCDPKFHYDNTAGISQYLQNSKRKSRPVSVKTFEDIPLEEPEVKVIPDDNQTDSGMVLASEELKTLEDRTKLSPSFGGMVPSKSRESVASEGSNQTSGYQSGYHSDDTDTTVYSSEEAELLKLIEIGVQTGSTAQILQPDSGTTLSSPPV

T1 sequence (P49759 whole entry, the tested form may be a part): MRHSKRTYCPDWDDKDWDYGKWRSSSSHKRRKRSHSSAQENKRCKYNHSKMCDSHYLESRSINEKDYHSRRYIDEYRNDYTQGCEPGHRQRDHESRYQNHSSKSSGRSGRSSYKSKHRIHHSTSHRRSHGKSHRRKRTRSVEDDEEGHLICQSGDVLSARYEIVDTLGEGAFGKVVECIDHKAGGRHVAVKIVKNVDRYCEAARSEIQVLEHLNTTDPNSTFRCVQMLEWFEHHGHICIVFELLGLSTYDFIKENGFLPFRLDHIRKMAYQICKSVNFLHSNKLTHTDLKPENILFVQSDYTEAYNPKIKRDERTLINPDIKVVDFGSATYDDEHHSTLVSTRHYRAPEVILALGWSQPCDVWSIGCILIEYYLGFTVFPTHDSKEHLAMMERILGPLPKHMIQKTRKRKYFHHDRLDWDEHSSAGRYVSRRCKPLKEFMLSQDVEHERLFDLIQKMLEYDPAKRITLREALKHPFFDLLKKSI
CDK9/cyclin T1, sequence (O60563 whole entry): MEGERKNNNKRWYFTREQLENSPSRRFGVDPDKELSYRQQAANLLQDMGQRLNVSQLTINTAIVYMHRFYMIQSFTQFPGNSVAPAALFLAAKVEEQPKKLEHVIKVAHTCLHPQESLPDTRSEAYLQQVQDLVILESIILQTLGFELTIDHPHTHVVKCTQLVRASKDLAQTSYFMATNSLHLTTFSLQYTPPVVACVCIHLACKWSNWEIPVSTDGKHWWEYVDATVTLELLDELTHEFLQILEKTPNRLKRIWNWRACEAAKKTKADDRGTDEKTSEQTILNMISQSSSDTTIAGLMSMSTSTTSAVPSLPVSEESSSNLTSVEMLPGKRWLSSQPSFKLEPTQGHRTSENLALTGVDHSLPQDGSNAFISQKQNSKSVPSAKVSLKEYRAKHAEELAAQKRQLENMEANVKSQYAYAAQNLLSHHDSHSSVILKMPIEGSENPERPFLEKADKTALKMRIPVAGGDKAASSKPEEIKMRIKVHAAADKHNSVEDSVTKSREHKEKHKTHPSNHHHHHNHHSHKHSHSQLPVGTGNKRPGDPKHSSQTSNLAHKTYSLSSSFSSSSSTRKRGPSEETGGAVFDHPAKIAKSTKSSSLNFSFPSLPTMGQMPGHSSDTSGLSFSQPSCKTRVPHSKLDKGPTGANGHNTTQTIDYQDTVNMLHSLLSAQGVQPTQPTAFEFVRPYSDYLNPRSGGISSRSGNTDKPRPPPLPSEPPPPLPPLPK
CDK9/cyclin T1, sequence (P50750 whole entry): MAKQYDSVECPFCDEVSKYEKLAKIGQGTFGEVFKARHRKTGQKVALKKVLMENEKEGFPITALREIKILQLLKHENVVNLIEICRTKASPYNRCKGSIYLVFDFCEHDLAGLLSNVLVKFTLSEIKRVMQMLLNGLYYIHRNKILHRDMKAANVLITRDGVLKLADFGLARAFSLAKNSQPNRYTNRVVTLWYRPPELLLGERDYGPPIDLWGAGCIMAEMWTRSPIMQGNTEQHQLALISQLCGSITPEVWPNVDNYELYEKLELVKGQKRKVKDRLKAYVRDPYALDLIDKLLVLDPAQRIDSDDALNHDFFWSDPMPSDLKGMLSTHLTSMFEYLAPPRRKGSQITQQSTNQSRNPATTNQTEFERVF

IC50 [1]: 8.9 nM
IC50 [2]: 260 nM
IC50 [3]: 320 nM
IC50 [5]: 180 nM
IC50 [6]: 150 nM
Compound: Nc1nc(Nc2ccc(S(N)(=O)=O)cc2)nn1C(=S)Nc1c(F)cccc1F
IC50 [4]: 120 nM

IC50 [7]: 40 nM
IC50 [8]: 7000 nM
IC50 [9]: 200 nM
IC50 [10]: 7500 nM
IC50 [11]: 4000 nM
Compound: CCS(=O)(=O)c1ccc(OC)c(Nc2ncc(/C=C/c3ccccc3)o2)c1

IC50 [7]: 30 nM
IC50 [8]: 500 nM
Compound: CCS(=O)(=O)c1ccc(OC)c(Nc2ncc(-c3cc4ccccc4s3)o2)c1

IC50 [7]: 80 nM
IC50 [12]: 23 nM
Compound: CCS(=O)(=O)c1ccc(OC)c(Nc2ncc(-c3ccc(CC#N)c(-c4ccccn4)c3)o2)c1

IC50 [7]: 20 nM
IC50 [8]: 1000 nM
Compound: CCS(=O)(=O)c1ccc(OC)c(Nc2ncc(-c3ccc4cc(OC)ccc4c3)o2)c1
